The values that follow come from US7521427B2 (Georgia Tech Research Corporation, priority 2004, dated 2009).

The structures appear in SMILES notation. Where two headings read alike, the source gives them in different places. Bounds are passed on as bounds.

For one assay, the target named is T1, calpain I (Homo sapiens, UniProt P07384).
T1 construct: purchased Calbiochem (La Jolla, Calif.)
T1 sequence (P07384 1-714): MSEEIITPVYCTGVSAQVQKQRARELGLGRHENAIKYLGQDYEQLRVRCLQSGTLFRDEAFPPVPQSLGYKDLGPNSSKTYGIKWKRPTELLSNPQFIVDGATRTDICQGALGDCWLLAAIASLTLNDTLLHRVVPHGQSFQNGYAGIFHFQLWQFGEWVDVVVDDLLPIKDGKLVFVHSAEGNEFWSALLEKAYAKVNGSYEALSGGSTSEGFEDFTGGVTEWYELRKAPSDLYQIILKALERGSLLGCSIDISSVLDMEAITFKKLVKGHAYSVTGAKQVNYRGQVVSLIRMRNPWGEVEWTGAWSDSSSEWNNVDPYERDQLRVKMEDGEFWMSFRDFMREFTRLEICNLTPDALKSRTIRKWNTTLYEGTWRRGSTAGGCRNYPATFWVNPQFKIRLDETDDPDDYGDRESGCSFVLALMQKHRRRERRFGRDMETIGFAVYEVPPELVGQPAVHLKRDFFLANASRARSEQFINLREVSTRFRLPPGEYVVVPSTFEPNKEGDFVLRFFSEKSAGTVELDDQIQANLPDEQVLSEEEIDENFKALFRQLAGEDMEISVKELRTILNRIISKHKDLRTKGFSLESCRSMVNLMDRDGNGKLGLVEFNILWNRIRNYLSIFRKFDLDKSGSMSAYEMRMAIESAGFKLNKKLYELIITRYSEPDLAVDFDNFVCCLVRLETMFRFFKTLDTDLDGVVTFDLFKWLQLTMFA
T1 sequence (P04632 1-268 partner): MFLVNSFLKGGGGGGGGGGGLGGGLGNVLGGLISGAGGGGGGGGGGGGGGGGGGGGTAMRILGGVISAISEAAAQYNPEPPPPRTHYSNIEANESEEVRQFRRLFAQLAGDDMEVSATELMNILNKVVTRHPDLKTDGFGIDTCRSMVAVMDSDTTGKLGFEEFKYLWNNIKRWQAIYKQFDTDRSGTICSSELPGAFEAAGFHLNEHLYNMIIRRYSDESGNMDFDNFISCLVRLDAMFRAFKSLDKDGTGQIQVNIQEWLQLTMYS
The assay can be described thus: Calpain I irreversible inhibition assay. It is filed as biochemical, porcine. The settings on record: 23° C.; for kinact/KI: read-out: kobs/[I] Calpain I. Here is the method:
Calpain I was purchased from Calbiochem (La Jolla, Calif.) in a solution of 30% glycerol at a concentration of 6.96 μM and stored at −20° C. prior to use. The calpain I assay was conducted with 235 μL of a solution of 50 mM Hepes, […], at pH 7.5 (calpain I buffer), 6.5 μL of Suc-Leu-Tyr-AMC substrate solution in DMSO and 4.2 μL of the enzyme solution (6.96 μM) at 23° C. The enzymatic activity was monitored by following the change in fluorescence for 10 min at 465 nm. The k2 values were obtained by non-linear regression analysis and corrected for substrate (1+[S]/KM=1.274). All assays were run in duplicate and the standard deviation was determined.

The target of another assay is T2, papain (Carica papaya, UniProt P00784).
T2 construct: purchased
T2 sequence (P00784 134-345): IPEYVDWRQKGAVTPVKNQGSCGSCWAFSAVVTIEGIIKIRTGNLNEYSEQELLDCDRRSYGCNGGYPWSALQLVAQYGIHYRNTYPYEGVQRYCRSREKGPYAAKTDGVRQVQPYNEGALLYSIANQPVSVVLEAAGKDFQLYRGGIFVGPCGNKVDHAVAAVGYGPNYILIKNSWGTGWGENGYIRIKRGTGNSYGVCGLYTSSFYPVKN
In words: Papain incubation method inhibition assay. It is filed as biochemical. The settings on record: for kinact/KI: pH 7.5, read-out: kobs/[I] Papain, incubation method; for kobs/[I] Papain: incubation method, pH 7.5. The protocol: (§1) The incubation method was used to measure the irreversible inhibition of papain and cathepsin B. With cathepsin B, 30 μL of a stock inhibitor solution was added to 300 μL of a 0.1 M potassium phosphate buffer containing 1.25 mM EDTA, 0.01% Brij 35 at pH 6.0, followed by the addition of 30 μL of a freshly prepared cathepsin B solution (approximate concentration 6.98×10^−3 μg/μL) in the same potassium phosphate buffer containing 1 mM DTT (freshly prepared). Aliquots (50 μL) from the inhibition mixture were withdrawn at various time intervals and added to 200 μL of a 0.1 M potassium phosphate buffer containing 1.25 mM EDTA, 0.01% Brij 35 at pH 6.0, and the substrate Cbz-Arg-Arg-AMC (499 μM). The release of 7-amino-4-methylcoumarin was monitored (λex=360 nm, λem=465 nm) using a Tecan Spectra Fluor microplate reader. Pseudo first-order inactivation rate constants were obtained from plots of In vt/vo versus time.
The incubation method was also used for commercially available papain. The inhibition incubation buffer for papain was 50 mM Hepes buffer at pH 7.5, containing 2.5 mM DTT (dithiothreitol) and 2.5 mM EDTA. The assay used the substrate Cbz-Phe-Arg-pNA (53.7 μM) in the same buffer. The approximate concentration of papain added to the incubation buffer was 0.29 mg/mL. The release of p-nitroanilide was monitored at 405 nm with a Molecular Devices Thermomax microplate reader. All assays were run in duplicate.

The target in assay [1] is T3, cathepsin B (Homo sapiens, UniProt P07858). The assay can be described thus: Cathepsin B incubation method inhibition assay. The format is biochemical. The settings on record: pH 6.0, 23° C., N.I. = no inhibition after 20 minutes of incubation. Here is the method:
as §1

Assay [2] concerns the target T4, cathepsin L (Homo sapiens, UniProt P07711).
T4 construct: purchased Athens Research & Technology (Athens, Ga.)
In words: Cathepsin L progress curve inhibition assay. The format is biochemical. The settings on record: corrected for substrate; for kinact/KI: pH 5.5, progress curve method, read-out: kobs/[I] Cathepsin L. The protocol: Cathepsin L was purchased from Athens Research & Technology (Athens, Ga.) in a 20 mM malonate buffer solution at pH 5.5 with 1 mM EDTA and 400 mM NaCl with a specific activity of 4.133 U/mg. The progress of cathepsin L inhibition was conducted with 243 μL of a solution of 0.25 M NaAc, 2 mM EDTA, 0.015% Brij, 5 mM DTT (dithiothreitol) at pH 5.5, 4 μL of Cbz-Phe-Arg-AMC substrate solution (16 mM) in DMSO (2% final concentration). Activity was monitored by following the change in fluorescence for 20 min at 465 nm. The kobs values were obtained by non-linear regression analysis and corrected for substrate (1+[S]/KM=1.274). All assays were run in duplicate and the standard deviation was determined.

Assay [3] has as its target purified recombinant cruzain (Trypanosoma cruzi, UniProt P25779). The assay can be described thus: Cruzain IC50 determination. The settings on record: for IC50: cruzain 2 nM, 5 minutes preincubation at room temperature, pH 5.5. The format is biochemical. The protocol: (§2) Inhibitors were screened for effectiveness against purified recombinant cruzain and rhodesain. Cruzain (2 nM) or rhodesain (3 nM) was incubated with 0.0001 to 1 μM inhibitor in 100 mM sodium acetate buffer, pH 5.5 and 5 mM DTT (buffer A), for 5 minutes at room temperature. Buffer A containing Cbz-Phe-Arg-AMC (Bachem, KM=1 μM, AMC=7-amino-4-methylcoumarin) was added to the enzyme and inhibitor to give 20 or 10 μM substrate concentration for cruzain and rhodesain, respectively, in 200 μL. The increase in fluorescence (excitation at 355 nm and emission at 460 nm) was followed with an automated microtiter plate spectrofluorimeter (Molecular Devices, Flex Station). Inhibitor stock solutions were prepared at 20 mM in DMSO and serial dilutions were made in DMSO (0.7% DMSO in assay). Controls were performed using enzyme alone, and enzyme with DMSO. IC50 values were determined graphically using inhibitor concentrations in the linear portion of a plot of enzyme activity versus log [I] (7 concentrations tested with at least 2 in the linear range).

In assay [4] the target is purified recombinant rhodesain (Trypanosoma brucei rhodesiense, UniProt Q95PM0). In words: Rhodesain IC50 determination. The format is biochemical, Trypanosoma brucei rhodensiense. The settings on record: for IC50: rhodesain 3 nM, 5 minutes preincubation at room temperature, pH 5.5. The protocol: as §2
Sequence of purified recombinant rhodesain (Q95PM0 entry or part of it): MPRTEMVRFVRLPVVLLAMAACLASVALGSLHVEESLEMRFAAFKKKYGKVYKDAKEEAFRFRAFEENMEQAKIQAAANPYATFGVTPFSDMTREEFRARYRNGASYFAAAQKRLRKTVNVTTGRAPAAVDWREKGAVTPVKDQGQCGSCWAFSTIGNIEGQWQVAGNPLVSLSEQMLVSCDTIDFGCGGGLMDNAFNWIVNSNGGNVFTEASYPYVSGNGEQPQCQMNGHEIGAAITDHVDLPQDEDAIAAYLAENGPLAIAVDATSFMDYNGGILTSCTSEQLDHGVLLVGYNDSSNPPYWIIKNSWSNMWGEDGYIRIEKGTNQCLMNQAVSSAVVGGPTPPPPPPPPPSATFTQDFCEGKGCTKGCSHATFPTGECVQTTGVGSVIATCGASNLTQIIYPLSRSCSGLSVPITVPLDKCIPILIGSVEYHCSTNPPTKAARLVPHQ
Assay [5] concerns the target T3, cathepsin B. The settings on record: irreversible inhibition; cited from earlier work.
Assay [6] has as its target T4, cathepsin L. To be noted: irreversible inhibition; cited from earlier work.
A further assay has as its target T5, cathepsin H (Homo sapiens, UniProt P09668).
T5 sequence (P09668 98-335): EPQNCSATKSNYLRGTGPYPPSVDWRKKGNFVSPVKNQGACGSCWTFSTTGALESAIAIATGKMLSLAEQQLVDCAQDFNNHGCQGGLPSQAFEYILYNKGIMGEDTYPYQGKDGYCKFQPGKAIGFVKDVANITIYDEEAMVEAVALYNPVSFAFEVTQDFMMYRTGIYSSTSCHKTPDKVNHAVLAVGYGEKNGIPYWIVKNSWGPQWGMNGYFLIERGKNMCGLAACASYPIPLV
To be noted: irreversible inhibition; cited from earlier work.

[7] abbreviates: pH 7.5, incubation method, plots of ln vt/v0 vs time.
Setting [8] is: pH 7.5, progress curve method, corrected for substrate.

T4 sequence (P07711 114-333): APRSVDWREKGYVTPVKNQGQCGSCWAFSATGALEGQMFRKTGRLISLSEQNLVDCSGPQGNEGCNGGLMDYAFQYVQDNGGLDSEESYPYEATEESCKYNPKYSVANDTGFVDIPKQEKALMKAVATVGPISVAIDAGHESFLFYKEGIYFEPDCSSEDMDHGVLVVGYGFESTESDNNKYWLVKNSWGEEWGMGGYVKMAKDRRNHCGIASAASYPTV
Sequence of purified recombinant cruzain (P25779 123-467): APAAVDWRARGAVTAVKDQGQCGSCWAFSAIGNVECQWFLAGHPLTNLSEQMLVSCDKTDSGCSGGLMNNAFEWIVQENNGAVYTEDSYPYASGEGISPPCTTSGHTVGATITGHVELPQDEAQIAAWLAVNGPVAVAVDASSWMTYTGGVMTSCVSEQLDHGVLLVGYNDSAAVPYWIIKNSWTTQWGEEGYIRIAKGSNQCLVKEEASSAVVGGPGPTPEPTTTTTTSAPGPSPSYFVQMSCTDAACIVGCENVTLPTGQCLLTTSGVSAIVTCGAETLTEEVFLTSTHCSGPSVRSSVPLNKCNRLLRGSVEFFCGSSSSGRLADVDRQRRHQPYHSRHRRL

As to `C[C@H](NC(=O)OCc1ccccc1)C(=O)NC(=CCS(=O)(=O)c1ccccc1)Cc1ccccc1` (mixture of isomers) [Cbz-Ala-Phe-AS-Ph, Phenyl-3-(N-carbobenzyloxyalanyl)amino-4-phenylbut-2-enyl Sulfone], the kinact/KI at calpain I (setting [7]) was determined as 3 M⁻¹ s⁻¹; on papain, 9 M⁻¹ s⁻¹; at cathepsin L [2], 183 ± 10 M⁻¹ s⁻¹. Moreover, the “kobs/[I] Cathepsin B” value on cathepsin B [1] is listed as “N.I.^f”. Also, the IC50 in assay [3] (read-out: IC50 Cruzain) and in [4] (IC50 Rhodesain) was above 10000 nM throughout.

Consider `CC(C)[C@H](NC(=O)OCc1ccccc1)C(=O)NC(=CCS(=O)(=O)c1ccccc1)Cc1ccccc1` (mixture of isomers) [Cbz-Val-Phe-AS-Ph, Phenyl-3-(N-carbobenzyloxyvalyl)amino-4-phenylbut-2-enyl Sulfone], for which the kinact/KI at calpain I (setting [7]) stood at 3 M⁻¹ s⁻¹; at papain, 6 ± 1 M⁻¹ s⁻¹; at cathepsin L [2] it was 310 ± 52 M⁻¹ s⁻¹. In addition, the “kobs/[I] Cathepsin B” value at cathepsin B [1] is reported as “N.I”. Moreover, the results for the IC50 in assay [3] (read-out: IC50 Cruzain) and in assay [4] (IC50 Rhodesain) were 6000 nM and 5000 nM, respectively.

Turning to `CC(C)C[C@H](NC(=O)OCc1ccccc1)C(=O)NC(=CCS(=O)(=O)c1ccccc1)Cc1ccccc1` (single isomer, unassigned) [Cbz-Leu-Phe-AS-Ph (Isomer A), Phenyl-3-(N-carbobenzyloxyleucyl)amino-4-phenylbut-2-enyl Sulfone], the kinact/KI is 23 ± 4 M⁻¹ s⁻¹ at calpain I (setting [7]) and 700 ± 43 M⁻¹ s⁻¹ at cathepsin L [2]. In addition, the “kobs/[I] Papain” value on papain stood at 49 M⁻¹ s⁻¹. Further, the “kobs/[I] Cathepsin B” value on cathepsin B [1] is “N.I”. Also, the IC50 – broadly, the concentration that gives 50% inhibition – turned out to be 60 nM in [3] (read-out: IC50 Cruzain) and 40 nM in assay [4] (IC50 Rhodesain).

Turning to `CC(C)C[C@H](NC(=O)OCc1ccccc1)C(=O)NC(=CCS(=O)(=O)c1ccccc1)Cc1ccccc1` (single isomer, unassigned) [Cbz-Leu-Phe-AS-Ph (Isomer B), Phenyl-3-(N-carbobenzyloxyleucyl)amino-4-phenylbut-2-enyl Sulfone], the kinact/KI on calpain I (setting [8]) was 564 ± 32 M⁻¹ s⁻¹. Further, the “kobs/[I] Calpain I” value on calpain I (progress curve method, corrected for substrate, pH 7.5) came out at 564 M⁻¹ s⁻¹. The “kobs/[I] Papain” value on papain worked out at 15 ± 1 M⁻¹ s⁻¹. Also, the “kobs/[I] Cathepsin B” value on cathepsin B [1] is “N.I”. On cathepsin L [2] (progress curve method, pH 5.5), the “kobs/[I] Cathepsin L” value stood at 1062 M⁻¹ s⁻¹. For the same molecule, the figures for the IC50 in assay [3] (read-out: IC50 Cruzain) and in assay [4] (IC50 Rhodesain) were 300 nM and 180 nM, respectively.

In the case of `CC(C)CCNC(=O)[C@H](CC(C)C)NC(=O)/C=C/C(=O)O` (stereo in doubt) [fumarate derivative of E-64c, trans-HOOCCH═CH—CO-Leu-NH(CH2)2CH(CH3)2], the “kapp cathepsin B” value on cathepsin B [5] was 625 M⁻¹ s⁻¹. For the same molecule, the “kapp cathepsin L” value on cathepsin L [6] was 2272 M⁻¹ s⁻¹. Moreover, at cathepsin H, the “inhibition of cathepsin H” value is on record as “inhibits”.

As to `CC(C)C[C@H](NC(=O)OCc1ccccc1)C(=O)N[C@H](C=CS(=O)(=O)c1ccccc1)Cc1ccccc1` [reference compound], the kinact/KI at calpain I (setting [8]) was determined as 550 ± 2 M⁻¹ s⁻¹; on papain, 10 M⁻¹ s⁻¹; on cathepsin L [2] it was 219 ± 96 M⁻¹ s⁻¹. Further, on cathepsin B [1], the “kobs/[I] Cathepsin B” value is “N.I”. Moreover, the IC50 was 2000 nM in [3] (IC50 Cruzain) and 500 nM in [4] (read-out: IC50 Rhodesain). In [3] (ratio of IC50 values), the “fold less potent with cruzain than the corresponding allyl sulfone Cbz-Leu-Phe-AS-Ph” value was “over 30 fold”. For the same molecule, the “fold less potent with rhodesain than the corresponding allyl sulfone Cbz-Leu-Phe-AS-Ph” value in assay [4] (ratio of IC50 values) was above 12 fold.
